Data from patent publication US20230233671A1, “RNA MOLECULES” (Pfizer Inc., priority 2021, published 2023).

Columns and labels:
[1] = tested on: VZV gE; assay: ICS assay of gE peptide-stimulated splenocytes from LAV-experienced C57BL/6 mice; type: in vivo; settings: for IFN-γ+ CD4+ T cell: percentage within CD4+ T cells; for IFN-γ+ CD8+ T cell: percentage within CD8+ T cells; for gE-specific IFN-γ+ CD8+ T cell response induced or not: FIG. 26C; for gE-specific IFN-γ+ CD8+ T-cell response, increase after second/boost dose: FIG. 27B
Text: Splenocytes were harvested from Balb/c mice on Day 34, (34 days after immunization, 6 days after boost) to assess gE-specific T cell responses induced. An Intracellular Cytokine Staining (ICS) assay was used to detect the presence of cytokines within CD4^+ or CD8^+ T cells following antigen peptide stimulation. ICS assay can detect multiple cytokines, including IFN-γ, produced in both CD4^+ and CD8^+ T cells following antigen peptide stimulation. During the ex vivo stimulation of splenocytes, reagents to block protein secretion are added to retain the synthesized cytokine to allow their detection by intracellular staining. Following stimulation, cells are stained for surface and intracellular markers to identify T cell types (CD3^+ cells for CD4 and CD8 T cells), activation markers (CD154/CD40L) and cytokines. CD4^+ T cells expressing IFN-γ, IL-2, TNFα and CD40L, and CD8^+ T cells expressing IFN-γ were assessed to evaluate gE-specific T cells.
2×10^6 splenocytes were stimulated with a 2 μg/mL gE peptide pool mix, a mix of 10 ng/ml phorbol myristate acetate (PMA) and 1 μg/mL ionomycin (positive control), or DMSO (negative control). BD GOLGISTOP™ and BD GOLGIPLUG™ were added to block protein secretion. Following incubation for 6 hours at 37° C., cells were stained for viability (10 min at 25° C.) and extracellular markers with directly labelled antibodies (20 min at 25° C.). Cells were fixed and permeabilized with BD CYTOFIX/CYTOPERM™ solution. Intracellular staining for cytokines (IFN-γ, IL-2, TNFα) and activation markers (CD154/CD40L) was performed in BD CYTOFIX/CYTOPERM™ solution (30 min at 25° C.). Cells were washed, resuspended in 2% FBS/PBS buffer and acquired on an LSRFORTESSA™. Data were analyzed by FlowJo 10.7.1. Results shown are background (media-DMSO) subtracted.
VZV RNA-LNP vaccines were tested for their ability to induce IgG and T cell responses in C57BL/6 mice. 15 mice per group were immunized in accordance with the schedule and specification in Table 11. Briefly, 10 or 15 mice per group were primed subcutaneously (SQ) on Day 0 with a live-attenuated varicella (LAV) vaccine (VARIVAX®, Merck) using a full human dose per mouse (1350 pfu), immunized intramuscularly (IM) on Day 35 day and boosted on Day 63. The “infection” with a LAV vaccine mimics exposure to VZV that humans receive when infected with VZV as children and develop chickenpox.
Mice immunized with SHINGRIX® received 1, 2.5, or 5 μg, corresponding to 1/50, 1/20, and 1/10 of the human clinical dose, respectively; mice immunized with gE_WT CO2 received 0.5 or 1 μg VZV RNA-LNP; mice immunized with ms5 CO1 received 0.5 or 1 ug VZV RNA-LNP; mice immunized with ms6 CO2 received 0.5 or 1 ug VZV RNA-LNP; and mice immunized with lyophilized gE_WT CO2 received 0.5 or 1 ug VZV RNA-LNP. Saline was administered on Day 35 and 63 to a negative control group. Sera was collected from mice on Day 35, 63 and 76 for characterization of VZV gE-binding IgG levels (LUMINEX® analyses). Spleens were harvested on Day 48 (13 days post dose 1 for selected groups) and Day 76 for cellular analysis (T cell and B cell responses).
Vaccine-induced T cell response was measured following ex vivo stimulation of splenocytes with gE peptide pool (2 μg/mL of each peptide) by ELISpot and Intracellular Cytokine Staining (ICS) assay (described herein). For ELISpot, the cytokine IFN-γ secreted by activated T cells were captured by an anti-IFN-γ antibody coated onto the polyvinylidene fluoride (PVDF) membrane of the well bottom on a microplate. The captured IFN-γ was developed into a spot by another non-competing biotinylated anti-IFN-γ secondary antibody followed by an enzymatic color reaction using streptavidin-alkaline phosphatase (ALP) conjugate and the substrate solution, nitro-blue tetrazolium and 5-bromo-4-chloro-3′-indolyphosphate (BCIP/NBT-plus) that yielded a dark purple precipitate or spot. […]

[2] = tested on: Vero cells; assay: VZV gE expression and subcellular localization in Vero cells transfected with VZV RNA constructs (imaging); type: cell-based, African green monkeys; settings: Table 8; VZV gE RNA, see Example 2
Description: Expression of VZV RNA constructs were tested in transfected Vero cells, a kidney epithelial cell culture line derived from African green monkeys. Seeded Vero cells were transfected for 24 hours at 37° C., 5% CO2 with 10 ng, 25 ng, or 50 ng of RNA constructs (Table 5) using MESSENGERMAX™ in accordance with the manufacturer's instructions. Cells were washed three times with PBS+Ca/Mg, and fixed in 4% paraformaldehyde (PFA) for 20 minutes at 25° C. Cells were washed twice with 3% bovine serum albumin (BSA) in PBS+Ca/Mg. Primary and secondary staining antibodies were diluted in 0.1% saponin in goat serum. Cells were stained with a 1:1000 dilution of primary antibody for 1 hour at 37° C., washed three times with PBS+Ca/Mg, and incubated with secondary antibody (1:500) and CELLMASK™ (1:140,000) for 45 minutes at 37° C. Cells were then stained with Dapi (1:15,000-1:20,000) for 15 minutes at 25° C., and washed three times with PBS+Ca/Mg. Cells were analyzed for VZV gE expression and subcellular localization using an Opera PHENIX® Plus High-Content Screening System at 10× or 63× magnification.

[3] = tested on: human embryonic kidney (HEK) 293T cells; assay: In vitro expression (IVE) of VZV RNA-LNP vaccines in HEK 293T cells (FACS); type: cell-based; settings: for VZV RNA-LNPs (293T cells) MFI: Table 8; for VZV RNA-LNPs (293T cells) EC50 (ng/well): Table 8, FIG. 15, input RNA vs percentage of gE-expressing cells, 24 hours
Description: In vitro expression (IVE) analyses were conducted to assess the potency of VZV RNA-LNP vaccines. RNA constructs were formulated into LNPs as previously described in Example 3, and a range of input VZV RNA-LNP quantities was transfected into human embryonic kidney (HEK) 293T cells for 24 hours at 37° C., 5% CO2. Transfected cells were washed with DPBS, detached from plate wells using ACCUTASE®, and rinsed with cold PBS. Cells were subjected to live/dead staining, fixation, and permeabilization prior to FACS staining. Fixed and permeabilized cells were incubated with an anti-gE primary antibody (1:1000) for 45 minutes at 2-8° C., washed twice with BD PERM/WASH™ buffer and incubated with a goat anti-human kappa-PE secondary antibody (1:1000) for 30 minutes at 2-8° C. Cells were washed twice with BD PERM/WASH™ buffer, resuspended in 1×FACS buffer, and analyzed on a BD LSRII to determine the proportion of cells expressing VZV gE for each VZV RNA-LNP input. A titration curve was created whereby input RNA quantities were plotted against the percentage of gE-expressing cells to determine the EC50 of each VZV RNA-LNP vaccine.

[4] = Day 48 (13 days post dose 1), 1 μg IM Day 35
[5] = Day 76 (13 days post dose 2/boost), 1 μg IM Days 35 and 63
[6] = Day 76 (13 days post dose 2/boost)

Row | Substance | IFN-γ+ CD4+ T cell [1, 4] [%] | IFN-γ+ CD8+ T cell [1, 4] [%] | gE-specific IFN-γ+ CD8+ T cell response induced or not ([1]; Day 48 (13 days post dose 1)) | IFN-γ+ CD4+ T cell [1, 5] [%] | IFN-γ+ CD8+ T cell [1, 5] [%] | gE-specific IFN-γ+ CD8+ T-cell response, increase after second/boost dose [1, 6] | VZV RNA (Vero cells) MFI [2] | VZV RNA-LNPs (293T cells) MFI [3] | VZV RNA-LNPs (293T cells) EC50 (ng/well) [3] [ng/well]
1 | ms5 CO1: modRNA construct, ORF SEQ ID NO: 153, VZV gE with deletion of aa 582-623 | 0.47 | 0.05 | induced | 0.48 | 0.28 | robust increase | 1368 | 543 | 14
2 | ms6 CO2: modRNA construct, ORF SEQ ID NO: 157, VZV gE with deletion of aa 539-623, secreted | 0.09 | 0.16 | induced | 0.50 | 0.21 | robust increase | 458 | 162 | 220
